# In patent US7767679B2, “Sulfonylamino-derivatives as novel inhibitors of histone deacetylase” (Janssen Pharmaceutica N.V., priority 2002, dated 2010):
# Like-named read-outs stand apart in the source and are kept apart here.
# Legend:
# [1] = target: histone deacetylase (HeLa nuclear extracts); assay: In vitro assay for inhibition of histone deacetylase; type: biochemical; conditions: HeLa nuclear extracts 60 μg/ml, [3H]acetylated histone H4 peptide substrate, 30 min
# Protocol: The in vitro assay for inhibition of histone deacetylase (see example C.1) measures the inhibition of HDAC enzymatic activity obtained with the compounds of formula (I).
# HeLa nuclear extracts (supplier: Biomol) were incubated at 60 μg/ml with 2×10^−8 M of radiolabeled peptide substrate. As a substrate for measuring HDAC activity a synthetic peptide, i.e. the amino acids 14-21 of histone H4, was used. The substrate is biotinylated at the NH2-terminal part with a 6-aminohexanoic acid spacer, and is protected at the COOH-terminal part by an amide group and specifically [^3H]acetylated at lysine 16. The substrate, biotin-(6-aminohexanoic)Gly-Ala-([^3H]-acetyl-Lys-Arg-His-Arg-Lys-Val-NH2), was added in a buffer containing 25 mM Hepes, 1 M sucrose, 0.1 mg/ml BSA and 0.01% Triton X-100 at pH 7.4. After 30 min the deacetylation reaction was terminated by the addition of HCl and acetic acid. (final concentration […] respectively). After stopping the reaction, the free ^3H-acetate was extracted with ethylacetate. After mixing and centrifugation, the radioactivity in an aliquot of the upper (organic) phase was counted in β-counter.
# For each experiment, controls (containing HeLa nuclear extract and DMSO without compound), a blank incubation (containing DMSO but no HeLa nuclear extract or compound) and samples (containing compound dissolved in DMSO and HeLa nuclear extract) were run in parallel. In first instance, compounds were tested at a concentration of 10^−5M. […] In each test the blank value was substracted from both the control and the sample values. The control sample represented 100% of substrate deactylation. For each sample the radioactivity was expressed as a percentage of the mean value of the controls. […] Herein the effects of test compounds are expressed as pIC50 (the negative log value of the IC50-value).
# [2] = tested on: A2780 ovarian carcinoma cells; assay: Antiproliferative activity on A2780 cells (MTT); type: cell-based; conditions: Homo sapiens, 96 h, four days of incubation, read-out: Cellular activity pIC50 (converted)
# Protocol: Cellular activity of the compounds of formula (I) was determined on A2780 tumour cells using a colorimetric assay for cell toxicity or survival (Mosmann Tim, Journal of Immunological Methods 65: 55-63, 1983)(see example C.2).
# All compounds tested were dissolved in DMSO and further dilutions were made in culture medium. Final DMSO concentrations never exceeded 0.1% (v/v) in cell proliferation assays. Controls contained A2780 cells and DMSO without compound and blanks contained DMSO but no cells. MTT was dissolved at 5 mg/ml in PBS. A glycine buffer comprised of 0.1 M glycine and 0.1 M NaCl buffered to pH 10.5 with NaOH (1 N) was prepared (all reagents were from Merck).
# The human A2780 ovarian carcinoma cells (a kind gift from Dr. T. C. Hamilton [Fox Chase Cancer Centre, Pennsylvania, USA]) were cultured in RPMI 1640 medium supplemented with 2 mM L-glutamine, 50 μg/ml gentamicin and 10% fetal calf serum. Cells were routinely kept as monolayer cultures at 37° C. in a humidified 5% CO2 atmosphere. Cells were passaged once a week using a trypsin/EDTA solution at a split ratio of 1:40. All media and supplements were obtained from Life Technologies. Cells were free of mycoplasma contamination as determined using the Gen-Probe Mycoplasma Tissue Culture kit (supplier: BioMérieux).
# Cells were seeded in NUNC™ 96-well culture plates (Supplier: Life Technologies) and allowed to adhere to the plastic overnight. Densities used for plating were 1500 cells per well in a total volume of 200 μl medium. After cell adhesion to the plates, medium was changed and drugs and/or solvents were added to a final volume of 200 μl. Following four days of incubation, medium was replaced by 200 μl fresh medium and cell density and viability was assessed using an […] assay. To each well, 25 μl μl MTT solution was added and the cells were further incubated for 2 hours at 37° C. The medium was then carefully aspirated and the blue MT-formazan product was solubilized by addition of 25 μl glycine buffer followed by 100 μl of DMSO. […] Within an experiment, the results for each experimental condition are the mean of 3 replicate wells. For initial screening purposes, compounds were tested at a single fixed concentration of 10^−6 M. For active compounds, the experiments were repeated to establish full concentration-response curves. For each experiment, controls (containing no drug) and a blank incubation (containing no cells or drugs) were run in parallel. The blank value was subtracted from all control and sample values. For each sample, the mean value for cell growth (in absorbance units) was expressed as a percentage of the mean value for cell growth of the control. […] Herein the effects of test compounds are expressed as pIC50 (the negative log value of the IC50-value).
# [3] = Kinetic solubility in aqueous media; type: physicochemical; conditions: aqueous buffer, kinetic from dmso stock; phosphate citrate buffer pH 7.4, turbidity by nephelometer; read-out: Solubility Score
# Protocol: Kinetic solubility in aqueous media measures the ability of a compound to stay in aqueous solution upon dilution (see example C.3).
# DMSO-stock solutions are diluted with a single aqueous buffer solvent in 3 consecutive steps. For every dilution turbidity is measured with a nephelometer.
# In the first dilution step, 10 μl of a concentrated stock-solution of the active compound, solubilized in DMSO (5 mM), was added to 100 μl phosphate citrate buffer pH 7.4 and mixed. In the second dilution step, an aliquot (20 μl) of the first dilution step was further dispensed in 100 μl phosphate citrate buffer pH 7.4 and mixed. Finally, in the third dilution step, a sample (20 μl) of the second dilution step was further diluted in 100 μl phosphate citrate buffer pH 7.4 and mixed. All dilutions were performed in 96-well plates. Immediately after the last dilution step the turbidity of the three consecutive dilution steps were measured with a nephelometer. Dilution was done in triplicate for each compound to exclude occasional errors. Based on the turbidity measurements a ranking is performed into 3 classes. Compounds with high solubility obtained a score of 3 and for this compounds the first dilution is clear. Compounds with medium solubility obtained a score of 2. For these compounds the first dilution is unclear and the second dilution is clear. […] The solubility of 9 compounds was measured.
# [4] = not given; remark: listed apart in the source
SMILES,"% metabolism (human, 15 min, 5 μM) [%]",Enzyme activity pIC50 [1],IC50 [2] [nM],solubility [3] [µM],melting point [4] [°C],"% metabolism (15 min incubation with active microsomes (1 mg/ml), compound 5 μM) [%]"
COc1cc(N)c(Cl)cc1C(=O)NC1CCN(CCCOc2ccc(F)cc2)CC1OC (stereo not shown) [Cisapride],45,,,,,
O=C(NO)c1cnc(N2CCC(NS(=O)(=O)c3ccc4ccccc4c3)CC2)nc1 [Co. No. 2],,6.104,27.1,> 455,200,
O=C(NO)c1ccc(N2CCC(CNS(=O)(=O)c3ccc4ccccc4c3)CC2)nc1 [Co. No. 4],,7.574,1360,< 76,173,
O=C(NO)c1cnc(N2CCC(CNS(=O)(=O)c3ccc4ccccc4c3)CC2)nc1 [Co. No. 5],,8.123,369,< 76,,
O=C(NO)c1cnc(N2CC[C@H](NS(=O)(=O)c3ccc4ccccc4c3)[C@H](CO)C2)nc1 [Co. No. 7],,7.533,9620,> 455,203,
O=C(NO)c1cnc(N2CC[C@H](CNS(=O)(=O)c3ccc4ccccc4c3)[C@H](O)C2)nc1 [Co. No. 8],,7.355,3040,> 455,224,
O=C(NO)c1cnc(N2CCC(O)(CNS(=O)(=O)c3ccc4ccccc4c3)CC2)nc1 [Co. No. 9],,7.579,> 10000,76 to 455,228,
O=C(NO)c1ccc(N2CCC(NS(=O)(=O)c3ccc(-c4ccccc4)cc3)CC2)nc1 [compound 15],,7.413,1240,< 76,,
CCCO [propanol],,,,,,25
